Five compounds from patent US8592458B2 (priority 2005, dated 2013) can be followed below.

Where a name gives a salt, the structure may show the parent alone.

The target of data set [1] is α4β2 nAChR (Rattus norvegicus, UniProt P09483+P12390). The data set is described as follows: Radioligand binding, displacement of [3H]cytisine from rat brain membranes. The conditions noted are these: n = 2. As to the method:
Assays were performed using the experimental compound to compete for its nAChR binding site with a radioligand that specifically labels either the α4β2 or the α7 nAChR in homogenized Sprague-Dawley rat brain membrane. These assays were used to determine the IC50 of the experimental compounds, which is then used to determine the KI with the Cheng-Prusoff equation.
The 3-arylidene-anabaseine compound was suspended in 50 mM Tris binding saline, with 2 mg/ml BSA, if it was a salt, or in methanol if it was a free base, and dilutions were made in 2 mg/ml BSA Tris binding saline. The final solutions were incubated at 37° C. for approximately 2.5 hours. Once the reaction was assumed to be at equilibrium, it was stopped by harvesting the tissue onto GF/C filters, which were soaked for 45 minutes in a 0.5% polyethylenamine solution to reduce non-specific binding of the radioligand to the filter, using a Brandel tissue harvester. The filters were then placed in gamma tubes and counted on a Beckman counter for 5 minutes per sample. The counts per minute were then assessed, the results were entered, and the IC50s and KIs were determined using the software program Graphpad Prism®. The [^3H]cytisine experiments were performed in a similar manner. First the addition of all of the components: 1 nM [^3H]cytisine, 3-benzylidene-3-arylidene-anabaseine compound (5 nM-50 μM), 0.2 mg rat brain homogenate, and 2 mg/ml BSA Tris solution at a pH of 7.4 to bring the final volume up to 0.5 ml in each tube.
To assess non-specific binding, 1 mM nicotine was added in place of the 3-arylidene-anabaseine. To assess total binding, only the radioligand, tissue, and BSA Tris solution were added. The incubation time and the temperature were altered in this protocol to produce the greatest difference between total and non-specific binding and to maximize the affinity of the radioligand for the receptor, respectively. The incubation time for [^3H]cytisine was 4 hours at 4° C. […] The counts per minute were entered into GraphPad Prism® where the IC50s and the KIs were assessed.
Rat brain membrane was obtained frozen from Pel-Freez Biologicals (Rogers, Ariz.). The protein concentration of the rat brain homogenate was assessed using the bicinchoninic acid (BCA) protein assay kit from Pierce (Rockford, Ill.).
Displacement of ^125I-labelled alpha-bungarotoxin (BTX) measured binding to alpha7 receptors; displacement of [^3H]-labelled cytisine measured binding to alpha4beta2 receptors. […] Nonspecific binding of each radioligand was measured in the presence of 1.0 mM nicotine. […] Bound [3H] […] was measured in a liquid scintillation counter, whereas [125]BTX was measured with use of a Biogamma counter (both from Beckman Coulter).
(Loss of bound radioactivity is the signal in a displacement assay; it reports binding, not function.)

The nature of data set [2]: Octanol/water partition coefficient by RP-HPLC. The format is physicochemical. The conditions noted are these: 1-octanol/sodium phosphate buffer; 1-octanol / 10 mM sodium phosphate buffer pH 7.4 with 150 mM NaCl, corrected for ionization. As to the method: P is the ratio of the concentration of an un-ionized form of a compound in octanol relative to the unionized concentration of the compound in an aqueous phase containing 150 mM NaCl (to approximate physiological conditions), after the two phases have equilibrated. Log P values were determined for each test compound by RP-HPLC analysis. Approximately 1 mg of each compound was weighed out and placed in equal volumes, 3 ml 10 mM sodium phosphate buffer, pH 7.4, which contained 150 mM NaCl, and 1-octanol. Previously, equal volumes of the sodium phosphate buffer and 1-octanol were added to a separatory funnel and allowed to equilibrate overnight. The equilibrated sodium phosphate buffer was checked prior to its addition to the compound for a pH of 7.4. Once these phases were added to the weighed compound, the solutions were allowed to equilibrate overnight on a gentle shaker at room temperature. The samples were centrifuged at […] for 5 minutes and octanol phase carefully removed with a Pasteur pipette. The pH of the water phase was remeasured in order to calculate the corrected Log P value.
Since large concentrations of octanol cannot be directly injected into the HPLC without affecting the elution of the compound being measured, the compound was extracted from the separated octanol phase with an acidic 150 mM NaCl solution adjusted to a pH of approximately 2.6 (with 100 mM glacial acetic acid). The acidic saline solution was allowed to gently mix with the octanol phase for 20 minutes on a shaker at room temperature. The samples containing the octanol and acidic saline phases were then centrifuged at 1,000×g for 5 minutes and the upper octanol phase was carefully removed with a Pasteur pipette. This back extraction step was repeated at least two and sometimes three times. All three or four back extracted solutions for a particular compound were then combined. Both the original aqueous and the back extracted octanol phases were then diluted with 50 mM ammonium acetate buffer, pH 4.5. The diluted samples were then transferred by pipette to autosampler tubes and subsequently […] of each diluted sample was injected into the HPLC. The area under the curve (AUC) of an absorbance peak was determined for samples from both (octanol and aqueous) of the original phases. Taking into account the dilutions of each sample phase during its preparation for HPLC determination, Log P (taking into consideration the percent ionization at pH 7.4) was then calculated.

The nature of data set [3]: Spectrophotometric pKa determination of the imine nitrogen. The format is physicochemical. The conditions noted are these: for % ionized: percent ionization at pH 7.4. As to the method: Thirteen different pH values in the titration region were evaluated (pH: 4, 5, 6, 7, 7.2, 7.5, 7.8, 8, 8.2, 8.5, 8.8, 9, 10). A specific concentration of 3-benzylidene-3-arylidene-anabaseine compound, 1.3×10^−3 M, was added to the potassium phosphate buffers at varied pH values. Each tube was then vortexed and immediately read in a Beckman spectrophotometer. The same glass cuvette was used with every sample. The glass cuvette was thoroughly rinsed with distilled deionized water between different pH samples. The wavelength scan was set to a range of 250-600 nm. The pH with the highest change in absorbance was determined. The wavelength at the highest change in absorbance and the absorbance values for all of the different pH samples at this wavelength were entered into the Enzfitter software (Elsevier-Biosoft, Cambridge, UK) in order to estimate each pKa value.

Data set [4] has as its target α7 nAChR (Rattus norvegicus, UniProt Q05941). The format is binding. The conditions noted are these: for Ki α4β2/α7 Ratio: alpha7 selectivity, not normalized with respect to DMXBA selectivity; for Ki: rat brain membranes, [125I]alpha-bungarotoxin, n = 2.
[5] abbreviates: imine nitrogen, room temperature, 50 mM potassium phosphate buffer, 150 mM NaCl.

Broadly, the Ki is a measure of affinity in units of concentration, obtained from inhibition or displacement. One may read the logP as a log measure of how a compound divides between an organic and an aqueous phase. Read a low logP as lower lipophilicity. What is called melting point is the temperature, or range, at which the solid turns liquid. Usually pKa stands for the pH at which an ionisable group is half protonated. High values mean a weaker acid or stronger base, low ones a stronger acid or weaker base.

Sequence of α4β2 nAChR (P09483 31-630): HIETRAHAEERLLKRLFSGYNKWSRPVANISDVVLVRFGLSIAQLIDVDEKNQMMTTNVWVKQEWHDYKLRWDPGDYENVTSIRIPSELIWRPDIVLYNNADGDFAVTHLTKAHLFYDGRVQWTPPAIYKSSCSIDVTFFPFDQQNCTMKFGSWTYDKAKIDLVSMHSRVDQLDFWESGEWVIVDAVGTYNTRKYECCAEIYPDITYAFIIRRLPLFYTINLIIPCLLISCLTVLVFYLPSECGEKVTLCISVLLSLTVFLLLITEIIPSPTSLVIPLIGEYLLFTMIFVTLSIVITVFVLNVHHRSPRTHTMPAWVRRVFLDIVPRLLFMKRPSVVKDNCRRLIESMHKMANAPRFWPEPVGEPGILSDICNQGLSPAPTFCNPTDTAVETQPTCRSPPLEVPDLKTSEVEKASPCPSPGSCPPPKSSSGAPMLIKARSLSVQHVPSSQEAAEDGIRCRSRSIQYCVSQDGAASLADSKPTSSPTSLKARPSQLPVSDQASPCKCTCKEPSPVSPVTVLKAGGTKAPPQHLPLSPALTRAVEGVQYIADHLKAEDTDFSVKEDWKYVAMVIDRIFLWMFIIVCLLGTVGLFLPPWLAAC
Sequence of α4β2 nAChR (P12390 25-500): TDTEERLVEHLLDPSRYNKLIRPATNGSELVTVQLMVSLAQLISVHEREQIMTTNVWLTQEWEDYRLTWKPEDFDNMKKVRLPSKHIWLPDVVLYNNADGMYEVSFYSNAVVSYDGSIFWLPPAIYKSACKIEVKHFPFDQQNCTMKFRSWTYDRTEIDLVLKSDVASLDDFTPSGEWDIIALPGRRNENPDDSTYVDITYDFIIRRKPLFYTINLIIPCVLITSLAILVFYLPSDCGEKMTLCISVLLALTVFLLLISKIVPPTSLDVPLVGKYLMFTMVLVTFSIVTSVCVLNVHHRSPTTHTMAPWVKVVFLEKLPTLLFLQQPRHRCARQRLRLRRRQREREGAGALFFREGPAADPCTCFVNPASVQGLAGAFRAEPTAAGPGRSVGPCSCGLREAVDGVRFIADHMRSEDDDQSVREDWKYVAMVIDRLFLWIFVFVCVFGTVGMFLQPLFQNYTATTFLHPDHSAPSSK
Sequence of α7 nAChR (Q05941 23-502): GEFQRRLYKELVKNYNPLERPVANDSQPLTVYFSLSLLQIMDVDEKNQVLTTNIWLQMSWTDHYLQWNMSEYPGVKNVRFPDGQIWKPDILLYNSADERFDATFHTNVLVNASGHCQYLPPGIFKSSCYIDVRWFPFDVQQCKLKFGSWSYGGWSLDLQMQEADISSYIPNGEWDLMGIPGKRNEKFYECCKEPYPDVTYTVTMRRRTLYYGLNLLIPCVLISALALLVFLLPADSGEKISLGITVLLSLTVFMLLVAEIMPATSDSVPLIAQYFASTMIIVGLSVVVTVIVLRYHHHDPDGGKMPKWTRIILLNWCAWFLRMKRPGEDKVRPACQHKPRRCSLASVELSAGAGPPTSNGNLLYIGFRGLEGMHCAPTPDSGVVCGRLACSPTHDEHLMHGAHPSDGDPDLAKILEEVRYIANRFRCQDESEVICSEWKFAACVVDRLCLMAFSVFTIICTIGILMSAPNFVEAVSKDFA

Consider `C(=C1/CCCN=C1c1cccnc1)/c1cc2ccccc2o1` [3-[(Benzofuran-2-yl)methylene]-anabaseine], for which the Ki in data set [1] stood at 5.92 ± 1.06 µM; in data set [4] it was 0.15 ± 0.003 µM. In addition, the logP in data set [2] came to 3.86 ± 0.4. Also, in data set [3] (setting [5]), the PKa is reported as 9/2/04. For the same compound, the “% ionized” value in data set [3] turned out to be 33.90%. In data set [4], the “Ki α4β2/α7 Ratio” value worked out at 39.5.
`COc1ccc2cc(/C=C3\CCCN=C3c3cccnc3)ccc2c1` (as salt: hydrochloride) [3-[(6-Methoxy-naphth-2-yl)-methylene]-anabaseine dihydrochloride] registered a melting point of 223 to 226 °C.
Regarding `C(=C1/CCCN=C1c1cccnc1)/c1ccc2c(c1)OCO2` [3-[3,4-(Methylenedioxy)benzylidene]-anabaseine], the Ki in data set [1] turned out to be 0.7 ± 0.07 µM. For the same compound, the log partition coefficient (logP) in data set [2] came to 2.43. In data set [3] (setting [5]), this compound displayed a pKa of 7.64 ± 0.04. In addition, in data set [3], the “% ionized” value was 63.48%. Moreover, in data set [4], the “Ki α4β2/α7 Ratio” value is given as 3.04 and the Ki was 0.23 ± 0.002 µM.
On to `C(=C1/CCCN=C1c1cccnc1)/c1ccc2c(c1)OCCO2` [3-[3,4-(Ethylenedioxy)benzylidene]-anabaseine], for which, in data set [1], the affinity, expressed as Ki, was 0.52 ± 0.01 µM. Also, the log partition coefficient (logP) in data set [2] came to 3.1. The compound also returned a pKa in data set [3] (setting [5]) of 7.56 ± 0.03. Besides, in data set [3], the “% ionized” value was 59.11%. Further, in data set [4], the “Ki α4β2/α7 Ratio” value came to 2.60 and affinity was put at a Ki of 0.2 ± 0.01 µM.
Turning to `COc1ccc2cc(/C=C3\CCCN=C3c3cccnc3)ccc2c1` [3-[(6-Methoxy-naphth-2-yl)-methylene]-anabaseine dihydrochloride], the Ki in data set [1] is 0.6 ± 0.1 µM; in data set [4], 0.37 ± 0.03 µM. The compound further registered a logP in data set [2] of 2.65. For the same compound, in data set [3] (setting [5]), the pKa was determined as 7.29 ± 0.12. Besides, the “% ionized” value in data set [3] was determined as 43.67%. For the same compound, in data set [4], the “Ki α4β2/α7 Ratio” value turned out to be 1.62.
